Results taken from patent publication US20230113037A1 (Bayer Aktiengesellschaft, priority 2019, published 2023).
pIC50: −log10 of the molar value. Read-outs that look alike come from different tables or passages of the source.

How the values were obtained:
AHR [1] = biological target: T1, AHR (Homo sapiens, UniProt P35869); test: In vitro assay 1: antagonism in human cell line (AHR transactivation, firefly luciferase reporter, kynurenic acid prestimulated); type: cell-based; conditions: AHR Antagonism Human IC50 [M], firefly luciferase reporter
T1 construct: U87 MG glioblastoma cells (ATCC #HTB-14) endogenously expressing AHR; endogenous in cells; host or cells: U87 MG glioblastoma cells (ATCC #HTB-14)
T1 sequence (P35869 11-848): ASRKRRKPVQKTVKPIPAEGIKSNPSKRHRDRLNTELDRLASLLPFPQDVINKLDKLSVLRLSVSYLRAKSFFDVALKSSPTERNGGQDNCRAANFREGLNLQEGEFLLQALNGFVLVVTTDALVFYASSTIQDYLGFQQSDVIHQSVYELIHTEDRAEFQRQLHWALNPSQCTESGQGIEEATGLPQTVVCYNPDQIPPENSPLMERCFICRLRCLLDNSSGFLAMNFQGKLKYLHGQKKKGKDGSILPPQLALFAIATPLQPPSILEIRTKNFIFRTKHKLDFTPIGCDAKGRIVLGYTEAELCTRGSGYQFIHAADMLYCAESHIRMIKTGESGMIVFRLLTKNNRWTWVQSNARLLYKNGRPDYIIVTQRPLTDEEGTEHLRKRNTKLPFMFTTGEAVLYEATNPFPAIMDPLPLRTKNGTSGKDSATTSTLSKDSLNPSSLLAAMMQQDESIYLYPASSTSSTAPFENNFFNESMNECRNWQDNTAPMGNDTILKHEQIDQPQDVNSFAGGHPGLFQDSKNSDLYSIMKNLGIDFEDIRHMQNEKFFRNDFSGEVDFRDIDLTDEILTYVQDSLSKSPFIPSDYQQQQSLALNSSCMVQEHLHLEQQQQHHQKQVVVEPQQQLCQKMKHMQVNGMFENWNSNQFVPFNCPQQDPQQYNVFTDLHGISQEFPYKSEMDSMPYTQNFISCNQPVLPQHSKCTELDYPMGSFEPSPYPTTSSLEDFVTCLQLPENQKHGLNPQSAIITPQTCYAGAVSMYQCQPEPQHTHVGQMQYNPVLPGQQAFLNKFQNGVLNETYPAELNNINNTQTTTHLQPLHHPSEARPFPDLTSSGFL
Procedure, shortened: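 Antagonism is measured against kynurenic acid prestimulation in U87 MG glioblastoma cells carrying stable DRE-luciferase and Renilla reporters. Positive inhibition control: 150 μM kynurenic acid with 5 μM staurosporine. Values are normalized to controls; repeats are averaged or given as medians.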

AHR [2] = biological target: T2, AHR (Mus musculus, UniProt P30561); test: In vitro assay 3: antagonism in mouse cell line (AHR transactivation, firefly luciferase reporter, kynurenic acid prestimulated); type: cell-based
T2 sequence (P30561 1-848 P471L/N533S/M589L): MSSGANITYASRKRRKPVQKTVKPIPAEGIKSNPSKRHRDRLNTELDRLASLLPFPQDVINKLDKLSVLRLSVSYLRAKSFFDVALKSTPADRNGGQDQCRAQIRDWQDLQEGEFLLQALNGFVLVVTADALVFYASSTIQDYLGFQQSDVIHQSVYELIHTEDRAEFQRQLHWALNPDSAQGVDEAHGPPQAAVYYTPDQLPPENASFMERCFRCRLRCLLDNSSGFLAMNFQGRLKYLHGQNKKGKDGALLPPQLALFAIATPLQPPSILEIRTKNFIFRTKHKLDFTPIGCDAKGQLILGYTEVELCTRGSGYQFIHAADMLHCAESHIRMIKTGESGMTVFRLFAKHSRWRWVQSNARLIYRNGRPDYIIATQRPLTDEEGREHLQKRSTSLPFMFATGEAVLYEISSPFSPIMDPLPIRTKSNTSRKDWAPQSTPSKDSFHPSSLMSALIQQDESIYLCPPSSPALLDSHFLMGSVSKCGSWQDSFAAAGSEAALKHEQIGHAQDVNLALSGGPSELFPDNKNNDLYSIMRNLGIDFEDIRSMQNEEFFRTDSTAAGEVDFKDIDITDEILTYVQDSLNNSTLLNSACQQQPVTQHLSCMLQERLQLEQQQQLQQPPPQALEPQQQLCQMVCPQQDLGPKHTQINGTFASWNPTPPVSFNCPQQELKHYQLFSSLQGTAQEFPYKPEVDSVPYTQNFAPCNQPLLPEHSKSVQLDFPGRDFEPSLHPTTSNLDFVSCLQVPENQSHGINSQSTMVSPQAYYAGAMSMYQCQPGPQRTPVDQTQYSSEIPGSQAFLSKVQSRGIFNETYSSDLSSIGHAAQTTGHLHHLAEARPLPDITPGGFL
Procedure, shortened: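 Luminescence from an AHR-dependent DRE-luciferase reporter, stably integrated in mouse cells, quantifies blockade of kynurenic acid-driven activation. Unstimulated cells mark maximal inhibition; normalization uses both control types, and multiply tested compounds carry mean or median values.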

[3] = Hepa 1c1c7 cells, 200 μM kynurenic acid, 20 hours, firefly luciferase reporter, read-out: AHR Antagonism Mouse IC50

Compound	IC50 (AHR [1]) [M]	pIC50 (AHR [2]; [3])	pIC50 (AHR [2]; read-out: AHR Antagonism Mouse IC50, Hepa 1c1c7 cells, 200 μM kynurenic acid, 20 hours, firefly luciferase reporter)
CC(C)[C@@H](Nc1nc2c(Br)cccc2c2nc(-c3cnn(C)c3)nn12)C(=O)NCCN1CCN(C)CC1 [Example 927, N^2-[7-bromo-2-(1-methyl-1H-pyrazol-4-yl)[1,2,4]triazolo[1,5-c]quinazolin-5-yl]-N-[2-(4-methylpiperazin-1-yl)ethyl]-D-valinamide]	6.5e-08	7.46	
CC(C)[C@@H](Nc1nc2c(Br)cccc2c2nc(-c3cnn(C)c3)nn12)C(=O)N1CCN(C)CC1 [Example 928, (2R)-2-{[7-bromo-2-(1-methyl-1H-pyrazol-4-yl)[1,2,4]triazolo[1,5-c]quinazolin-5-yl]amino}-3-methyl-1-(4-methylpiperazin-1-yl)butan-1-one]	1.81e-08	8.24	
COCCNC(=O)[C@H](Nc1nc2c(Br)cccc2c2nc(-c3cnn(C)c3)nn12)C(C)C [Example 929, N^2-[7-bromo-2-(1-methyl-1H-pyrazol-4-yl)[1,2,4]triazolo[1,5-c]quinazolin-5-yl]-N-(2-methoxyethyl)-D-valinamide]	3.93e-08	7.96	
Cn1cc(-c2nc3c4cccc(C#N)c4nc(N[C@@H]4CNCCNC4=O)n3n2)cn1 [Example 930, 2-(1-methyl-1H-pyrazol-4-yl)-5-{[(6R)-5-oxo-1,4-diazepan-6-yl]amino}[1,2,4]triazolo[1,5-c]quinazoline-7-carbonitrile]	5.21e-06	4.85	
CC(C)n1cc(-c2nc3c4cccc(C#N)c4nc(N[C@@H]4CNCCNC4=O)n3n2)cn1 [Example 931, 5-{[(6R)-5-oxo-1,4-diazepan-6-yl]amino}-2-[1-(propan-2-yl)-1H-pyrazol-4-yl][1,2,4]triazolo[1,5-c]quinazoline-7-carbonitrile]	1.3e-07	6.53	
N#Cc1cccc2c1nc(N[C@@H]1CNCCNC1=O)n1nc(-c3cnn(C4CC4)c3)nc21 [Example 932, 2-(1-cyclopropyl-1H-pyrazol-4-yl)-5-{[(6R)-5-oxo-1,4-diazepan-6-yl]amino}[1,2,4]triazolo[1,5-c]quinazoline-7-carbonitrile]	1.48e-07	6.76	
N#Cc1cccc2c1nc(N[C@@H]1CNCCNC1=O)n1nc(-c3cnn(C4CCC4)c3)nc21 [Example 933, 2-(1-cyclobutyl-1H-pyrazol-4-yl)-5-{[(6R)-5-oxo-1,4-diazepan-6-yl]amino}[1,2,4]triazolo[1,5-c]quinazoline-7-carbonitrile]	7.39e-08	6.86	
N#Cc1cccc2c1nc(N[C@@H]1CNCCNC1=O)n1nc(-c3cnn(C(F)F)c3)nc21 [Example 934, 2-[1-(difluoromethyl)-1H-pyrazol-4-yl]-5-{[(6R)-5-oxo-1,4-diazepan-6-yl]amino}[1,2,4]triazolo[1,5-c]quinazoline-7-carbonitrile]	2.39e-07		6.94
N#Cc1cccc2c1nc(N[C@@H]1CNCCNC1=O)n1nc(-c3cn[nH]c3)nc21 [Example 935, 5-{[(6R)-5-oxo-1,4-diazepan-6-yl]amino}-2-(1H-pyrazol-4-yl)[1,2,4]triazolo[1,5-c]quinazoline-7-carbonitrile]	4.72e-06	5.95	
COc1ccc(-c2nc3c4cccc(S(C)(=O)=O)c4nc(N[C@@H]4CNCCNC4=O)n3n2)cc1 [Example 936, (6R)-6-{[7-(methanesulfonyl)-2-(4-methoxyphenyl)[1,2,4]triazolo[1,5-c]quinazolin-5-yl]amino}-1,4-diazepan-5-one]	1.27e-08	7.17	
Cn1cc(-c2nc3c4cccc(S(C)(=O)=O)c4nc(N[C@@H]4CNCCNC4=O)n3n2)cn1 [Example 937, (6R)-6-{[7-(methanesulfonyl)-2-(1-methyl-1H-pyrazol-4-yl)[1,2,4]triazolo[1,5-c]quinazolin-5-yl]amino}-1,4-diazepan-5-one]	> 2e-05	< 4.70	
CCSc1cccc2c1nc(N[C@@H]1CNCCNC1=O)n1nc(-c3cnn(C)c3)nc21 [Example 938]	4.23e-07	5.26	
CCSc1cccc2c1nc(N[C@@H]1CNCCNC1=O)n1nc(-c3ccc(OC)cc3)nc21 [Example 939, (6R)-6-{[7-(ethylsulfanyl)-2-(4-methoxyphenyl)[1,2,4]triazolo[1,5-c]quinazolin-5-yl]amino}-1,4-diazepan-5-one]	1.19e-08	7.65	
CCS(=O)(=O)c1cccc2c1nc(N[C@@H]1CNCCNC1=O)n1nc(-c3ccc(OC)cc3)nc21 [Example 940, (6R)-6-{[7-(ethanesulfonyl)-2-(4-methoxyphenyl)[1,2,4]triazolo[1,5-c]quinazolin-5-yl]amino}-1,4-diazepan-5-one]	1.79e-08	7.24	
COc1ccc(-c2nc3c4cccc(S(=O)(=O)C(C)C)c4nc(N[C@@H]4CNCCNC4=O)n3n2)cc1 [Example 941, (6R)-6-{[2-(4-methoxyphenyl)-7-(propan-2-sulfonyl)[1,2,4]triazolo[1,5-c]quinazolin-5-yl]amino}-1,4-diazepan-5-one]	3.61e-08	7.17	
CCS(=O)(=O)c1cccc2c1nc(N[C@@H]1CNCCNC1=O)n1nc(-c3cnn(C)c3)nc21 [Example 942, (6R)-6-{[7-(ethanesulfonyl)-2-(1-methyl-1H-pyrazol-4-yl)[1,2,4]triazolo[1,5-c]quinazolin-5-yl]amino}-1,4-diazepan-5-one]	7.67e-07	5.32	
CC(C)S(=O)(=O)c1cccc2c1nc(N[C@@H]1CNCCNC1=O)n1nc(-c3cnn(C)c3)nc21 [Example 943, (6R)-6-{[2-(1-methyl-1H-pyrazol-4-yl)-7-(propane-2-sulfonyl)[1,2,4]triazolo[1,5-c]quinazolin-5-yl]amino}-1,4-diazepan-5-one]	9.47e-07	5.55	
CC(C)n1cc(-c2nc3c4cccc(S(C)(=O)=O)c4nc(N[C@@H]4CNCCNC4=O)n3n2)cn1 [Example 944, (6R)-6-({7-(methanesulfonyl)-2-[1-(propan-2-yl)-1H-pyrazol-4-yl][1,2,4]triazolo[1,5-c]quinazolin-5-yl}amino)-1,4-diazepan-5-one]	1.67e-06	5.34	
CCn1cc(-c2nc3c4cccc(S(C)(=O)=O)c4nc(N[C@@H]4CNCCNC4=O)n3n2)c(C)n1 [Example 945, (6R)-6-{[2-(1-ethyl-3-methyl-1H-pyrazol-4-yl)-7-(methanesulfonyl)[1,2,4]triazolo[1,5-c]quinazolin-5-yl]amino}-1,4-diazepan-5-one]	4.79e-07	5.68	
Cn1nccc1-c1nc2c3cccc(C(F)(F)F)c3nc(N[C@@H]3CNCCNC3=O)n2n1 [Example 946, (6R)-6-{[2-(1-methyl-1H-pyrazol-5-yl)-7-(trifluoromethyl)[1,2,4]triazolo[1,5-c]quinazolin-5-yl]amino}-1,4-diazepan-5-one]	8.75e-09	8.67	
